Results on 18 compounds are retold here after US11254700B2, “GSK-3β inhibitors and use thereof in methods of treatment” (UNIVERSITY OF HAWAII, priority 2017, dated 2022).

Structures are written as SMILES. Some results are limits rather than exact numbers.

Sequence of GSK-3β (P49841 whole entry): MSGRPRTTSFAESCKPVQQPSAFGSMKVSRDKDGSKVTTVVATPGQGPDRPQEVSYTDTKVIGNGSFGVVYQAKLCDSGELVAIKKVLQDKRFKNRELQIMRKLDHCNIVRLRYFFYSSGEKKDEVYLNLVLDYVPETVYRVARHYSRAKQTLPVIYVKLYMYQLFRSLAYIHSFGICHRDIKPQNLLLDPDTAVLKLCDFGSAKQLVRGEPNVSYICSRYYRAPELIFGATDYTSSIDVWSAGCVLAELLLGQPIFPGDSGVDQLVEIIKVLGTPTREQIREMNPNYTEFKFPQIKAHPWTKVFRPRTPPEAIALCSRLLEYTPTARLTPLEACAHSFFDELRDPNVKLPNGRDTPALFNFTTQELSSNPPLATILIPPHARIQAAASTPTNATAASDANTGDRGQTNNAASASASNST

The target in the first assay is GSK-3β (Homo sapiens, UniProt P49841). The experiment in a line: Kinase luminescent assay (ADP-Glo), GSK-3β inhibition. Format: biochemical. Conditions: 25 μM ATP, 1 hour, room temperature; mean of quadruplicate of two experiments; read-out: IC50 against GSK-3β. The procedure:
Kinase Luminescent Assay.
Kinase inhibition was assessed with the ADP-Glo Kinase Assay. […] The reaction mixture was incubated for 1 hour at room temperature followed by the addition of the ADP-Glo′ reagents according to the manufacturer's protocol. The kinase inhibitor staurosporine was used at 1 μM as a reference control. Each data point was collected in quadruplicate of two independent experiments.
In general terms: In ADP-Glo the light output rises with the ADP produced.
As to `O=c1cc(-c2ccc(O)c(O)c2)oc2c([C@@H]3O[C@H](CO)[C@@H](O)[C@H](O)[C@H]3O)c(O)cc(O)c12` [Compound 3, orientin, reference compound], the IC50 was 5153 ± 31 µM.

Turning to `COc1ccc(-c2cc(=O)c3c(OC)c([C@@H]4O[C@H](CO)[C@@H](O)[C@H](O)[C@H]4O)c(OC)cc3o2)cc1OC` [Compound 5, 2-(3,4-Dimethoxyphenyl)-5,7-dimethoxy-6-((2S,3R,4R,5S,6R)-3,4,5-trihydroxy-6-(hydroxymethyl)tetrahydro-2H-pyran-2-yl)-4H-chromen-4-one], the IC50 amounted to 239.2 ± 1.2 µM.

Consider `COc1ccc(-c2cc(=O)c3c(OC)c([C@@H]4O[C@H](C(=O)O)[C@@H](O)[C@H](O)[C@H]4O)c(OC)cc3o2)cc1OC` [Compound 6, (2S,3S,4R,5R,6S)-6-(2-(3,4-Dimethoxyphenyl)-5,7-dimethoxy-4-oxo-4H-chromen-6-yl)-3,4,5-trihydroxytetrahydro-2H-pyran-2-carboxylic acid], for which the IC50 came out at 237.3 ± 1.4 µM. In the case of `COC(=O)[C@H]1O[C@@H](c2c(OC)cc3oc(-c4ccc(OC)c(OC)c4)cc(=O)c3c2OC)[C@H](O)[C@@H](O)[C@@H]1O` [Compound 7, Methyl (2S,3S,4R,5R,6S)-6-(2-(3,4-dimethoxyphenyl)-5,7-dimethoxy-4-oxo-4H-chromen-6-yl)-3,4,5-trihydroxytetrahydro-2H-pyran-2-carboxylate], the IC50 was 135 µM.

Turning to `CCCNC(=O)[C@H]1O[C@@H](c2c(OC)cc3oc(-c4ccc(OC)c(OC)c4)cc(=O)c3c2OC)[C@H](O)[C@@H](O)[C@@H]1O` [Compound 8, (2S,3S,4R,5R,6S)-6-(2-(3,4-Dimethoxyphenyl)-5,7-dimethoxy-4-oxo-4H-chromen-6-yl)-3,4,5-trihydroxy-N-propyltetrahydro-2H-pyran-2-carboxamide], the IC50 came out at 29.2 ± 1.1 µM.

Turning to `CCCCNC(=O)[C@H]1O[C@@H](c2c(OC)cc3oc(-c4ccc(OC)c(OC)c4)cc(=O)c3c2OC)[C@H](O)[C@@H](O)[C@@H]1O` [Compound 10, (2S,3S,4R,5R,6S)-6-(2-(3,4-Dimethoxyphenyl)-5,7-dimethoxy-4-oxo-4H-chromen-6-yl)-3,4,5-trihydroxy-N-butyltetrahydro-2H-pyran-2-carboxamide], the IC50 is 33.3 ± 1.1 µM. On to `COc1ccc(-c2cc(=O)c3c(OC)c([C@@H]4O[C@H](C(=O)NCC(C)C)[C@@H](O)[C@H](O)[C@H]4O)c(OC)cc3o2)cc1OC` [Compound 11, (2S,3S,4R,5R,6S)-6-(2-(3,4-Dimethoxyphenyl)-5,7-dimethoxy-4-oxo-4H-chromen-6-yl)-3,4,5-trihydroxy-N-isobutyltetrahydro-2H-pyran-2-carboxamide], for which the IC50 was found to be 31.1 ± 1.2 µM.

As for `CCCCCNC(=O)[C@H]1O[C@@H](c2c(OC)cc3oc(-c4ccc(OC)c(OC)c4)cc(=O)c3c2OC)[C@H](O)[C@@H](O)[C@@H]1O` [Compound 12, (2S,3S,4R,5R,6S)-6-(2-(3,4-Dimethoxyphenyl)-5,7-dimethoxy-4-oxo-4H-chromen-6-yl)-3,4,5-trihydroxy-N-pentyltetrahydro-2H-pyran-2-carboxamide], the IC50 came to 28 ± 1.1 µM. On the same count and under the same terms, the same measure for `CCCCCCNC(=O)[C@H]1O[C@@H](c2c(OC)cc3oc(-c4ccc(OC)c(OC)c4)cc(=O)c3c2OC)[C@H](O)[C@@H](O)[C@@H]1O` [Compound 13, (2S,3S,4R,5R,6S)-6-(2-(3,4-Dimethoxyphenyl)-5,7-dimethoxy-4-oxo-4H-chromen-6-yl)-3,4,5-trihydroxy-N-hexyltetrahydro-2H-pyran-2-carboxamide]: 9.4 ± 0.9 µM; for `COc1ccc(-c2cc(=O)c3c(OC)c([C@@H]4O[C@H](C(=O)NC5CC5)[C@@H](O)[C@H](O)[C@H]4O)c(OC)cc3o2)cc1OC` [Compound 14, (2S,3S,4R,5R,6S)—N-Cyclopropyl-6-(2-(3,4-dimethoxyphenyl)-5,7-dimethoxy-4-oxo-4H-chromen-6-yl)-3,4,5-trihydroxytetrahydro-2H-pyran-2-carboxamide]: 25.8 ± 1.1 µM. `COc1ccc(-c2cc(=O)c3c(OC)c([C@@H]4O[C@H](C(=O)NC5CCC5)[C@@H](O)[C@H](O)[C@H]4O)c(OC)cc3o2)cc1OC` [Compound 15, (2S,3S,4R,5R,6S)—N-Cyclobutyl-6-(2-(3,4-dimethoxyphenyl)-5,7-dimethoxy-4-oxo-4H-chromen-6-yl)-3,4,5-trihydroxytetrahydro-2H-pyran-2-carboxamide]: the IC50 worked out at 61.9 ± 1.9 µM. Still for that read-out and setting: the same measure for `COc1ccc(-c2cc(=O)c3c(OC)c([C@@H]4O[C@H](C(=O)NC5CCCC5)[C@@H](O)[C@H](O)[C@H]4O)c(OC)cc3o2)cc1OC` [Compound 16, (2S,3S,4R,5R,6S)—N-Cyclopentyl-6-(2-(3,4-dimethoxyphenyl)-5,7-dimethoxy-4-oxo-4H-chromen-6-yl)-3,4,5-trihydroxytetrahydro-2H-pyran-2-carboxamide]: 13.1 ± 1.1 µM.

On to `COc1ccc(-c2cc(=O)c3c(OC)c([C@@H]4O[C@H](C(=O)NCC5CCCCC5)[C@@H](O)[C@H](O)[C@H]4O)c(OC)cc3o2)cc1OC` [Compound 18, (2S,3S,4R,5R,6S)—N-(Cyclohexylmethyl)-6-(2-(3,4-dimethoxyphenyl)-5,7-dimethoxy-4-oxo-4H-chromen-6-yl)-3,4,5-trihydroxytetrahydro-2H-pyran-2-carboxamide], for which the IC50 is 26 ± 1.2 µM. On the same count and under the same terms, the same measure for `COc1ccc(-c2cc(=O)c3c(OC)c([C@@H]4O[C@H](C(=O)NC56CC7CC(CC(C7)C5)C6)[C@@H](O)[C@H](O)[C@H]4O)c(OC)cc3o2)cc1OC` [Compound 19, (2S,3S,4R,5R,6S)—N-(Adamantan-1-yl)-6-(2-(3,4-dimethoxyphenyl)-5,7-dimethoxy-4-oxo-4H-chromen-6-yl)-3,4,5-trihydroxytetrahydro-2H-pyran-2-carboxamide]: 33.5 ± 0.8 µM; for `COc1ccc(-c2cc(=O)c3c(OC)c([C@@H]4O[C@H](C(=O)Nc5ccccc5)[C@@H](O)[C@H](O)[C@H]4O)c(OC)cc3o2)cc1OC` [Compound 20, (2S,3S,4R,5R,6S)-6-(2-(3,4-Dimethoxyphenyl)-5,7-dimethoxy-4-oxo-4H-chromen-6-yl)-3,4,5-trihydroxy-N-phenyltetrahydro-2H-pyran-2-carboxamide]: 19.7 ± 1.1 µM. Same read-out and setting: the same measure for `COc1ccc(-c2cc(=O)c3c(OC)c([C@@H]4O[C@H](C(=O)Nc5nccs5)[C@@H](O)[C@H](O)[C@H]4O)c(OC)cc3o2)cc1OC` [Compound 23, (2S,3S,4R,5R,6S)-6-(2-(3,4-Dimethoxyphenyl)-5,7-dimethoxy-4-oxo-4H-chromen-6-yl)-3,4,5-trihydroxy-N-(thiazol-2-yl)tetrahydro-2H-pyran-2-carboxamide]: 35.1 ± 1 µM; for `COc1ccc(-c2cc(=O)c3c(OC)c([C@@H]4O[C@H](C(=O)NCCF)[C@@H](O)[C@H](O)[C@H]4O)c(OC)cc3o2)cc1OC` [Compound 26, (2S,3S,4R,5R,6S)-6-(2-(3,4-Dimethoxyphenyl)-5,7-dimethoxy-4-oxo-4H-chromen-6-yl)-3,4,5-trihydroxy-N-(2-fluoroethyl)tetrahydro-2H-pyran-2-carboxamide]: 34.8 ± 1 µM. Still for that read-out and setting: the same measure for `COc1ccc(-c2cc(=O)c3c(OC)c([C@@H]4O[C@H](C(=O)N[C@H](C)C(F)(F)F)[C@@H](O)[C@H](O)[C@H]4O)c(OC)cc3o2)cc1OC` [Compound 31, (2S,3S,4R,5R,6S)-6-(2-(3,4-Dimethoxyphenyl)-5,7-dimethoxy-4-oxo-4H-chromen-6-yl)-3,4,5-trihydroxy-N—((R)-1,1,1-trifluoropropan-2-yl) tetrahydro-2H-pyran-2-carboxamide]: less than 20 µM.

Staying with this assay, now noted: vs isoorientin 1.
`COC(=O)[C@H]1O[C@@H](c2c(OC)cc3oc(-c4ccc(OC)c(OC)c4)cc(=O)c3c2OC)[C@H](O)[C@@H](O)[C@@H]1O` [Compound 7, Methyl (2S,3S,4R,5R,6S)-6-(2-(3,4-dimethoxyphenyl)-5,7-dimethoxy-4-oxo-4H-chromen-6-yl)-3,4,5-trihydroxytetrahydro-2H-pyran-2-carboxylate]: the “increase of potency against GSK-3β relative to 1” value is 1.37 fold.

What is called IC50 is the concentration that gives 50% inhibition.
